Measured values: paper PMC7665192, “A natriuretic peptide from Arabidopsis thaliana (AtPNP-A) can modulate catalase 2 activity” (Scientific Reports, 2020)
Positions of bridges follow the written chain, without caps; N, C: chain ends. Residues, ends and D or L forms follow the SMILES beside them. *: point of attachment. Biotin = O=C1N[C@H]2[C@H](CS[C@H]2CCCCC(=O)*)N1

Experiments:
bovine CAT = experiment: Isothermal titration calorimetry (ITC); format: binding; details: 100 μM pAtPNP-A as titrant, PBS pH 7.4, 25 °C, 30 injections
Procedure: ITC experiments were undertaken using MicroCal iTC200 (Malvern Panalytical) calorimeter. The titrations were conducted at 25 °C in PBS buffer at pH 7.4, with 100 μM pAtPNP-A used as a titrant. Total number of injections was set at 30, reference power was 11 μcal s^−1, initial delay was 60 s, and stirring speed was 750 rpm.

CAT2 recombinant (rCAT2) = experiment: SPR, rCAT2 immobilized on NTA chip; format: binding, Arabidopsis thaliana; details: His-tagged rCAT2 immobilized at app. 4,500 RU, analytes at the same concentration, 20 °C
Procedure: N-terminally 6xHis-tagged AtPNP-A and CAT2 proteins were expressed in BL21 (DE3) One Shot E. coli cells (Life Technologies), purified by affinity chromatography with Ni–NTA beads (Qiagen) and HisTrap HP column (GE Healthcare Lifesciences) as described in[21]. The purity of preparations was verified on 12.5% SDS-PAGE, stained with Coomassie Brilliant Blue (Bio-Rad). Protein identities were confirmed in MS analysis, and protein concentration was determined according to the method of Bradford using BSA as a standard.
SPR experiments were performed at 20 °C on Biacore T100 instrument operated using Biacore T100 control software (version 2.0.2, GE Healthcare Lifesciences) using Series S CM5 or NTA sensor chips as described in[21]. […]
Figure 2 AtPNP-A directly interacts with Arabidopsis CAT2 and bovine liver CAT in vitro. […] The models were analyzed and visualized using UCSF Chimera (version 1.10.2; https://www.cgl.ucsf.edu/chimera/)[55]. […]

[1] = tested on: receptor perceiving AtPNP-A; details: cited from earlier work
Excerpt: Similarly, identification of novel receptors targeted by an increasing number of peptidic plant hormones discovered in the last few decades[8],[9] is anticipated. One of those, the plant natriuretic peptides (PNPs), are a group of systemically mobile signals[10] that have a role in the maintenance of salt and water balance[11],[12]. An A. thaliana PNP, termed AtPNP-A (At2g18660; Q9ZV52), has been implicated in several physiological processes ranging from the regulation of stomatal aperture, osmoticum-dependent volume changes[13],[14] and modulation of developmental stage- and tissue-specif ...

CAT2 = experiment: Bimolecular fluorescence complementation (BiFC); format: cell-based, Arabidopsis thaliana; details: chloroplasts of tobacco leaf protoplasts; NeYFP/CeYFP fusions; mean ± SEM, n = 30, P < 0.0001
Excerpt: The full-length A. thaliana AtPNP-A (At2g18660) coding region entry plasmid pENTRYAtPNP-A[46] and pCR8/GW-TOPOCAT2 were recombined separately with both pSITE-nEYFP-C1 [GenBank Accession Number GU734651] and pSITE-cEYFP-C1 [GenBank Accession Number GU734652] to create pNeYFP-AtPNP-A, pCeYFP-AtPNP-A, pNeYFP-CAT2 and pCeYFP-CAT2, respectively. Each plasmid has either the N-terminal (NeYFP) or C-terminal (CeYFP) fragment of eYFP followed by either AtPNP-A or CAT2 coding region driven by the 35S plant expression promoter. After sequence was confirmed each plasmid was transformed separately into Agrobacterium tumefaciens strain GV3101 (pMP90). Tobacco leaves were infiltrated as previously described in[50]. Briefly, A. tumefaciens strains grown in 2YT medium were harvested by centrifugation and resuspended in infiltration medium (10 mM MES pH 5.6, 10 mM MgCl2, 150 µM acetosyringone) to a final OD600 of 0.2. Equal volumes of infiltration media containing relevant BiFC strains were mixed and infiltrated into the underside of tobacco leaves using a needleless syringe. Leaves were harvested after 3 days to isolate protoplasts following[51] and then immediately imaged.
BiFC images were captured at the La Trobe University LIMS BioImaging Facility using a LSM 510 confocal laser scanning microscope (Zeiss), with a × 40/1.2 water immersion objective. The natural red autofluorescence of chlorophyll was used as a marker for chloroplasts. Excitation/emission wavelengths were 488/505–530 nm for YFP and 561/650 nm long pass for red fluorescence. At least three images containing one or more protoplasts were taken for each of the plasmid construct combinations. Each image captured three separate filter scans, including YFP, red fluorescence and bright field. Post-processing of images was performed with ImageJ version 1.48 software (https://imagej.nih.gov/ij/). For each image the contrast for each panel was set at automatic contrast. A merged image was generated for reference with a 10 µm scale bar. The red fluorescence only panel was used to encircle ten chloroplasts as region of interest (ROI), then the YFP fluorescence (BiFC) calculated for each ROI was divided by the red fluorescence calculated for the same ROI. All BiFC/red fluorescence points were plotted using GraphPadPrism7 (GraphPadSoftware). Mean and standard error were calculated for each BiFC combination. All statistical analyses were performed using GraphPadPrism7.
Figure 4 AtPNP-A interacts with CAT2 in vivo. […] Exemplar merged images of protoplasts isolated from a leaf infiltrated with different combinations of N- or C-terminally tagged CAT2 and AtPNP-A are shown. (g) BiFC/Red fluorescence chloroplast analysis with mean ± SEM in pink.

Compound	ITC: conformational changes on binding (bovine CAT)	SPR binding response to rCAT2 (CAT2 recombinant (rCAT2))	Generation of cGMP by receptor upon AtPNP-A binding [1]	BiFC / Red fluorescence signal, interaction with CAT2 (CAT2)
CC(C)C[C@@H]1NC(=O)[C@H](CC(N)=O)NC(=O)[C@H](CC(N)=O)NC(=O)[C@H](CCCCN)NC(=O)[C@H](C(C)C)NC(=O)CNC(=O)[C@H](C(C)C)NC(=O)[C@H](C(C)C)NC(=O)[C@H](CC(C)C)NC(=O)[C@H]([C@@H](C)O)NC(=O)[C@H](CCC(=O)O)NC(=O)[C@H](CCCNC(=N)N)NC(=O)[C@H](CCC(N)=O)NC(=O)[C@H]([C@@H](C)O)NC(=O)CNC(=O)[C@H](Cc2ccc(O)cc2)NC(=O)[C@@H](NC(=O)[C@H](C)NC(=O)[C@H](CO)NC(=O)[C@H](CCCNC(=N)N)NC(=O)[C@@H](NC(=O)[C@H](Cc2ccc(O)cc2)NC(=O)[C@@H]2CCCN2)[C@@H](C)O)CSSC[C@@H](C(=O)NCC(=O)N[C@@H](CCCNC(=N)N)C(=O)N[C@@H](CCCNC(=N)N)C(=O)N[C@@H](Cc2ccc(O)cc2)C(=O)N[C@@H](CCCNC(=N)N)C(=O)N[C@H](C(=O)N[C@@H](CCCNC(=N)N)C(=O)N[C@@H](CCCCNC(=O)CCCC[C@@H]2SC[C@@H]3NC(=O)N[C@@H]32)C(=O)O)C(C)C)NC(=O)[C@H](C)NC(=O)[C@H](CCCNC(=N)N)NC(=O)CNC(=O)[C@H](CC(N)=O)NC(=O)[C@H](CCC(N)=O)NC(=O)[C@H](Cc2c[nH]c3ccccc23)NC1=O [pAtPNP-A] (H-PYTRSACYGTQRETLVVGVKNNLWQNGRACGRRYRVRK(Biotin)-OH; disulfide 7-30; N-terminus and C-terminus assumed)	significant conformational changes occurring as a result of pAtPNP-A binding to bovine CAT	significant accumulation of the biologically active analyte	–	–
AtPNP-A: An A. thaliana PNP, termed AtPNP-A (At2g18660; Q9ZV52)	–	–	catalyzes generation of cGMP upon binding of AtPNP-A	interaction of the proteins in chloroplasts of protoplasts
